Measurements: ChEMBL document CHEMBL1141293, “Cassane furanoditerpenoids from the seed kernels of Caesalpinia bonduc from Thailand” (J Nat Prod, 2007)
Calls of active or inactive are those of the source. No cut-off for these calls is given here.

Tests used:
HepG2 = assay: Cytotoxicity against human HepG2 cells at 10 ug/ml by MTT assay; format: functional, cell-based
CHAGO = assay: Cytotoxicity against human CHAGO cells at 10 ug/ml by MTT assay; format: functional, cell-based
BT-474 = assay: Cytotoxicity against human BT474 cells at 10 ug/ml by MTT assay; format: functional, cell-based
SW-620 = assay: Cytotoxicity against human SW620 cells at 10 ug/ml by MTT assay; format: functional, cell-based
KATO3 = assay: Cytotoxicity against human KATO3 cells at 10 ug/ml by MTT assay; format: functional, cell-based
Plasmodium falciparum [1] = assay: Antimalarial activity against multidrug-resistant Plasmodium falciparum K1 by microculture radioisotope assay; format: functional, organism-based
Plasmodium falciparum [2] = assay: Antimalarial activity against multidrug-resistant Plasmodium falciparum K1 at 10 uM by microculture radioisotope assay; format: functional, organism-based

Q: How did the Activity (HepG2) turn out when `COC(=O)[C@@H]1c2ccoc2C[C@H]2[C@H]1[C@@H](OC(C)=O)[C@H](O)[C@@]1(O)C(C)(C)CCC(=O)[C@]21C` [BONDUCELLPIN E] was run?
A: The Activity was “Not toxic”.

Q: What about the Activity (CHAGO) of the same compound?
A: The Activity was “Not toxic”.

Q: What about the Activity (BT-474) of the same compound?
A: Its Activity is “Not toxic”.

Q: And the Activity (SW-620)?
A: Its Activity is “Not toxic”.

Q: And the Activity (KATO3)?
A: The Activity was “Not toxic”.

Q: What about the IC50 (Plasmodium falciparum [1]) of the same compound?
A: The IC50 was 1600 nM.

Q: How did the Activity (Plasmodium falciparum [2]) turn out when `CC(=O)O[C@@H]1[C@@H]2[C@H](Cc3occc3[C@@]2(C)O)[C@@]2(C)C(=O)CCC(C)(C)[C@]2(O)[C@H]1OC(C)=O` was run?
A: The Activity was “inactive”.

Q: And the Activity (HepG2)?
A: The Activity was “Not toxic”.

Q: What about the Activity (CHAGO) of the same compound?
A: Its Activity is “Not toxic”.

Q: And the Activity (BT-474)?
A: The Activity was “Not toxic”.

Q: And the Activity (SW-620)?
A: The Activity was “Not toxic”.

Q: What about the Activity (KATO3) of the same compound?
A: The Activity was “Not toxic”.

Q: Which Activity (HepG2) does the source give for `C=C1c2ccoc2C[C@H]2[C@H]1[C@@H](O)[C@H](OC(C)=O)[C@@]1(O)C(C)(C)CC[C@H](OC(C)=O)[C@]21C` [BONDUCELLPIN G] here?
A: Its Activity is “Not toxic”.

Q: And the Activity (CHAGO)?
A: Its Activity is “Not toxic”.

Q: And the Activity (BT-474)?
A: Its Activity is “Not toxic”.

Q: And the Activity (SW-620)?
A: Its Activity is “Not toxic”.

Q: What about the Activity (KATO3) of the same compound?
A: Its Activity is “Not toxic”.

Q: What about the IC50 (Plasmodium falciparum [1]) of the same compound?
A: Its IC50 is 3800 nM.

Q: For `C[C@H]1[C@@H](O)O[C@@H]2O[C@@]3(C)CC[C@H]4[C@H](C)CC[C@@H]1[C@@]24OO3` [ARTENIMOL], which IC50 (Plasmodium falciparum [1]) is on record?
A: The IC50 was 4 nM.

Q: For `C=C1c2ccoc2C[C@H]2[C@H]1[C@@H](OC(C)=O)[C@H](O)[C@@]1(O)C(C)(C)CCC(=O)[C@]21C` [BONDUCELLPIN F], which Activity (HepG2) is on record?
A: Its Activity is “Not toxic”.

Q: What about the Activity (CHAGO) of the same compound?
A: The Activity was “Not toxic”.

Q: And the Activity (BT-474)?
A: Its Activity is “Not toxic”.

Q: What about the Activity (SW-620) of the same compound?
A: The Activity was “Not toxic”.

Q: And the Activity (KATO3)?
A: Its Activity is “Not toxic”.

Q: What about the IC50 (Plasmodium falciparum [1]) of the same compound?
A: Its IC50 is 5800 nM.
